Activity calls are given as the source filed them. The calls are words filed in the database; no cut-off is given here.

4 compounds from ChEMBL document CHEMBL1157646, “Melanogenesis inhibitors from the desert plant Anastatica hierochuntica in B16 melanoma cells” (Bioorg Med Chem, 2010) can be followed below.

Series [1] in a line: Inhibition of theophylline-stimulated melanogenesis in mouse B16-4A5 cells at 300 uM after 72 hrs. It counts as functional. The conditions noted are these: B16-4A5, 72 h.
The nature of series [2]: Inhibition of theophylline-stimulated melanogenesis in mouse B16-4A5 cells at 100 uM after 72 hrs. It is filed as functional. Particulars: B16-4A5, 72 h.
Series [3] in a line: cells. The conditions noted are these: Mus musculus, B16-4A5, 72 h, read-out: INH.
Description: Inhibition of theophylline-stimulated melanogenesis in mouse B16-4A5 cells at 30 uM after 72 hrs
Series [4] can be described thus: cells. The conditions noted are these: Mus musculus, B16-4A5, 72 h, read-out: INH. This is another data set of the same source.
Description: Inhibition of theophylline-stimulated melanogenesis in mouse B16-4A5 cells at 10 uM after 72 hrs
The nature of series [5]: Inhibition of theophylline-stimulated melanogenesis in mouse B16-4A5 cells at 1000 uM after 72 hrs. Particulars: B16-4A5, 72 h. It counts as functional.
The target in series [6] is T1, Tyrosinase (Agaricus bisporus) (UniProt O42713).
T1 sequence (whole entry): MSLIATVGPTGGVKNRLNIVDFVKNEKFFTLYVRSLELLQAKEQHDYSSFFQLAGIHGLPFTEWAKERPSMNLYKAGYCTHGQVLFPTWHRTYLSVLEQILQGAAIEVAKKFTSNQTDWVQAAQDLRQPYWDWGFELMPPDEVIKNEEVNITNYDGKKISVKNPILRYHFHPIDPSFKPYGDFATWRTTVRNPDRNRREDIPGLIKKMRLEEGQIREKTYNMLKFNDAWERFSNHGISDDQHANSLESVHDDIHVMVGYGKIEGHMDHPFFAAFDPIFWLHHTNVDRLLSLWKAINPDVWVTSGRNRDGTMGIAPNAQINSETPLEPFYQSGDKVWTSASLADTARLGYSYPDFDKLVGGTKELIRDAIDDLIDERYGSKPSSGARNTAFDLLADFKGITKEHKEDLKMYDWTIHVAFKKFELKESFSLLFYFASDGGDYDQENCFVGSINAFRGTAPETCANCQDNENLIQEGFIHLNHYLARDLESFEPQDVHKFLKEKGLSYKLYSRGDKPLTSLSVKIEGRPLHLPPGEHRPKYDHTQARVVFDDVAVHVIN
Briefly: Inhibition of mushroom tyrosinase assessed as inhibition of melanin production from dopachrome by autoxidation at 100 uM.

Series [7] is described as follows: cells. The conditions noted are these: Mus musculus, B16-4A5, 72 h, read-out: INH. The source holds these as a separate data set.
Description: Inhibition of theophylline-stimulated melanogenesis in mouse B16-4A5 cells at 1 uM after 72 hrs
For series [8], the target named is T1, Tyrosinase (Agaricus bisporus). Briefly: Inhibition of mushroom tyrosinase at 1 uM.
The nature of series [9]: Toxicity in mouse B16-4A5 cells assessed as inhibition of cell proliferation at 10 uM in presence of 1 mM theophylline after 72 hrs by WST8 dye reduction assay. It counts as cell-based.
Series [10] in a line: Toxicity in mouse B16-4A5 cells assessed as inhibition of cell proliferation at 3 uM in presence of 1 mM theophylline after 72 hrs by WST8 dye reduction assay. It counts as cell-based.
For another series, the target named is T2, Tyrosinase (Agaricus bisporus, UniProt O42713).
T2 sequence (O42713 whole entry): T1 sequence (whole entry)
Nature of the series: Inhibition of mushroom tyrosinase.

Series [11] in a line: Toxicity in mouse B16-4A5 cells assessed as inhibition of cell proliferation at 30 uM in presence of 1 mM theophylline after 72 hrs by WST8 dye reduction assay. It is filed as cell-based.
Series [12] concerns the target T1, Tyrosinase (Agaricus bisporus). Nature of the series: Inhibition of mushroom tyrosinase at 3 uM.
Series [13] can be described thus: Toxicity in mouse B16-4A5 cells assessed as inhibition of cell proliferation at 1 uM in presence of 1 mM theophylline after 72 hrs by WST8 dye reduction assay. It counts as cell-based.
Series [14] in a line: cells. The conditions noted are these: Mus musculus, B16-4A5, 72 h, read-out: INH. This is another data set of the same source.
Description: Inhibition of theophylline-stimulated melanogenesis in mouse B16-4A5 cells at 3 uM after 72 hrs
Series [15] is described as follows: Effect on TRP1 mRNA expression in mouse B16-4A5 cells assessed as TRP1 mRNA/beta-actin mRNA expression ratio at 10 uM in presence of 1 mM theophylline after 72 hrs by RT-PCR. It is filed as functional.
Series [16] is described as follows: Effect on tyrosinase mRNA expression in mouse B16-4A5 cells assessed as tyrosinase mRNA/beta-actin mRNA expression ratio at 3 uM in presence of 1 mM theophylline after 72 hrs by RT-PCR. It is filed as functional.
A short description of series [17]: Effect on TRP2 mRNA expression in mouse B16-4A5 cells assessed as TRP2 mRNA/beta-actin mRNA expression ratio at 10 uM in presence of 1 mM theophylline after 72 hrs by RT-PCR. It counts as functional.
Series [18] can be described thus: Effect on TRP1 mRNA expression in mouse B16-4A5 cells assessed as TRP1 mRNA/beta-actin mRNA expression ratio at 3 uM in presence of 1 mM theophylline after 72 hrs by RT-PCR. It counts as functional.
Series [19] in a line: Effect on TRP2 mRNA expression in mouse B16-4A5 cells assessed as TRP2 mRNA/beta-actin mRNA expression ratio at 1 uM in presence of 1 mM theophylline after 72 hrs by RT-PCR. It is filed as functional.
Series [20] in a line: Effect on TRP1 mRNA expression in mouse B16-4A5 cells assessed as TRP1 mRNA/beta-actin mRNA expression ratio at 1 uM in presence of 1 mM theophylline after 72 hrs by RT-PCR. It is filed as functional.
A short description of series [21]: Toxicity in mouse B16-4A5 cells assessed as inhibition of cell proliferation in presence of 1 mM theophylline after 72 hrs by WST8 dye reduction assay. It counts as cell-based.
Series [22] in a line: Effect on tyrosinase mRNA expression in mouse B16-4A5 cells assessed as tyrosinase mRNA/beta-actin mRNA expression ratio at 1 uM in presence of 1 mM theophylline after 72 hrs by RT-PCR. It is filed as functional.
Series [23] can be described thus: Effect on tyrosinase mRNA expression in mouse B16-4A5 cells assessed as tyrosinase mRNA/beta-actin mRNA expression ratio at 10 uM in presence of 1 mM theophylline after 72 hrs by RT-PCR. It is filed as functional.
Series [24] deals with T3, Mitogen-activated protein kinase 1 and 3 (ERK2 and ERK1) (Mus musculus) (UniProt P63085+Q63844). Briefly: Inhibition of ERK1/2 phosphorylation in mouse B16-4A5 cells at 100 uM in presence of 1 mM theophylline after 72 hrs by immunoblot. It counts as cell-based.
T3 sequence (P63085 whole entry, looked up): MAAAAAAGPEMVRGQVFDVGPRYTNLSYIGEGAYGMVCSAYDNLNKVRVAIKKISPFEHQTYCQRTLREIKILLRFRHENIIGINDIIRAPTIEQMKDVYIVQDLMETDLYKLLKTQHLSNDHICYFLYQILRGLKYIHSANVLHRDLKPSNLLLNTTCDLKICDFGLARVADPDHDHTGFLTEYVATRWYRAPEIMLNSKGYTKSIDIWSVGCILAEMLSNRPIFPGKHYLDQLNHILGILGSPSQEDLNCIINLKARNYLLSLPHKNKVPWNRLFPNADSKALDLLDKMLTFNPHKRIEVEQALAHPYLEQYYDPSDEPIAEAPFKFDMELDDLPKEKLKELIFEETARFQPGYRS
T3 sequence (Q63844 whole entry, looked up): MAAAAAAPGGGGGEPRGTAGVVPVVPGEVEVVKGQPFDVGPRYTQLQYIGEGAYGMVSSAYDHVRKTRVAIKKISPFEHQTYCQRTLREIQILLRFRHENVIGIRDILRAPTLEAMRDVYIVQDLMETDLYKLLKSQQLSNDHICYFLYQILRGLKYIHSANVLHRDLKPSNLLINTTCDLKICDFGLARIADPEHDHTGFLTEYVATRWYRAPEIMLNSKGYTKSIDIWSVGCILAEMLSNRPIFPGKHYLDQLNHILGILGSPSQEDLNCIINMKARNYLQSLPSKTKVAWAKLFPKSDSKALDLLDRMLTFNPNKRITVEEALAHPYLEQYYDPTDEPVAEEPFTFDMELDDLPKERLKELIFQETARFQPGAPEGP
Series [25] in a line: Effect on tyrosinase mRNA expression in mouse B16-4A5 cells assessed as tyrosinase mRNA/beta-actin mRNA expression ratio at 30 uM in presence of 1 mM theophylline after 72 hrs by RT-PCR. It is filed as functional.
Series [26] in a line: Effect on TRP2 mRNA expression in mouse B16-4A5 cells assessed as TRP2 mRNA/beta-actin mRNA expression ratio at 3 uM in presence of 1 mM theophylline after 72 hrs by RT-PCR. It is filed as functional.
A short description of series [27]: Effect on TRP1 mRNA expression in mouse B16-4A5 cells assessed as TRP1 mRNA/beta-actin mRNA expression ratio at 30 uM in presence of 1 mM theophylline after 72 hrs by RT-PCR. It is filed as functional.
Series [28] in a line: Effect on TRP2 mRNA expression in mouse B16-4A5 cells assessed as TRP2 mRNA/beta-actin mRNA expression ratio at 30 uM in presence of 1 mM theophylline after 72 hrs by RT-PCR. It is filed as functional.
Series [29] concerns the target T3, Mitogen-activated protein kinase 1 and 3 (ERK2 and ERK1) (Mus musculus). Briefly: Inhibition of ERK1/2 phosphorylation in mouse B16-4A5 cells at 10 to 30 uM in presence of 1 mM theophylline after 72 hrs by immunoblot. It counts as cell-based.

For the compound `OC[C@H]1O[C@@H](Oc2ccc(O)cc2)[C@H](O)[C@@H](O)[C@@H]1O` [ARBUTIN], the inhibition at 300 µM in series [1] stood at 61.5%. Besides, the inhibition at 100 µM in series [2] was 38.1%. In addition, the inhibition at 30 µM in the series “cells [3]” worked out at 20.4%. Further, in “cells [4]”, the inhibition at 10 µM amounted to 10.6%. The inhibition at 1000 µM in series [5] is 83.7%.

`O=c1c(O)c(-c2ccc(O)c(O)c2)oc2cc(O)cc(O)c12` [QUERCETIN]: the inhibition at 30 µM in the series “cells [3]” worked out at 72.5%. Also, the inhibition entry in [6] is “inactive”. The inhibition at 1 µM in “cells [7]” was found to be 13.9%. Besides, the values for the inhibition in [8] and in series [12] were 3.5% and 4.8%, respectively. For the same compound, the inhibition at 10 µM in “cells [4]” came out at 34.3%. In [9], the inhibition at 72 h, 10 µM is -8.6%. Also, the inhibition at 72 h, 3 µM in series [10] is -7.7%. Moreover, half-maximal inhibition against Tyrosinase (IC50) required 31 µM. Further, the inhibition at 72 h, 30 µM in series [11] stood at 11.9%. Besides, the inhibition at 72 h, 1 µM in [13] is -8.8%. Also, the inhibition at 3 µM in “cells [14]” is 17.1%.

Take `COc1cc([C@H]2Oc3cc([C@H]4Oc5cc(O)cc(O)c5C(=O)[C@@H]4O)ccc3O[C@@H]2CO)ccc1O` [SILYBIN A]: the Ratio in [15] is on record as 1.6; in [16] it was 1.12; in series [17], 2; in series [18] it was 0.89; in series [19], 0.95; in series [20], 0.79. Besides, the Ratio is 0.92 in series [22]; 1.93 in series [23]; 2.11 in series [25]; 1 in [26]; 1.07 in series [27]; 1.6 in [28]. Further, the inhibition at 30 µM in the series “cells [3]” came to 64.7%. Also, the inhibition entry in series [6] is “inactive”. Further, the inhibition at 1 µM in the series “cells [7]” amounted to 9.2%. Moreover, the inhibition in series [8] stood at 8.4%; in series [12] it was 10.3%. The IC50 at 72 h in series [21] is over 100 µM. Besides, the inhibition at 10 µM in the series “cells [4]” was determined as 24.4%. Further, in [9], the inhibition at 72 h, 10 µM was 7.5%. In addition, the inhibition result in series [24] is “Active”. Moreover, the inhibition at 72 h, 3 µM in series [10] was -10.7%. Besides, the inhibition at 72 h, 30 µM in [11] came out at 33.8%. Moreover, the inhibition at 72 h, 1 µM in series [13] is -5.7%. The inhibition at 3 µM in “cells [14]” came to 18.8%.

Consider `COc1cc([C@@H]2Oc3cc([C@H]4Oc5cc(O)cc(O)c5C(=O)[C@@H]4O)ccc3O[C@H]2CO)ccc1O` [SILYBIN B], for which the Ratio in series [15] amounted to 1.35; in series [16], 0.95; in [17] it was 1.69; in series [18], 1.12; in [19], 0.78; in series [20], 0.88. The Ratio in series [22] is given as 0.89; in series [23] it was 1.27; in series [25], 0.59; in series [26], 1.31; in [27] it was 0.73; in series [28], 1.03. In “cells [3]”, the inhibition at 30 µM was 33%. Also, the inhibition at 1 µM in the series “cells [7]” was -0.2%. The inhibition in series [8] worked out at 5.7%; in series [12], 8.4%. The IC50 at 72 h in [21] was over 100 µM. Also, the inhibition at 10 µM in “cells [4]” is 10.2%. In series [9], the inhibition at 72 h, 10 µM came out at 11.8%. Further, the inhibition at 72 h, 3 µM in series [10] is -1.4%. Further, in [29], the inhibition entry is “Active”. In addition, the inhibition at 72 h, 30 µM in [11] worked out at 44.4%. For the same compound, the inhibition at 72 h, 1 µM in series [13] is -2%. Also, the inhibition at 3 µM in the series “cells [14]” came to 3%.
